Common to all, as to assay type: in vivo, human
In assay [1] the test system is VNO. In words: Autonomic responses to Estrene stimulation of the VNO (Example 54). The settings on record: 40 male subjects, 1 second pulse. How it is done: Various autonomic parameters were monitored while 1,3,5(10),16-Estratetraen-3-yl-acetate was administered to 40 male subjects using the procedure described in Example 20. Propylene glycol was also administered as a control. The ligand was administered as a 1 second pulse. The change in autonomic function was first noted within 2 seconds and lasted for up to 45 seconds.

Assay [2] relates to VNO. In words: Electrodermal activity (EDA) on vomeropherin stimulation of the VNO. The settings on record: n=30, p<0.01; for electrodermal activity (EDA): female subjects. The procedure:
(§1) Cortical evoked activity was induced by VNO stimulation with vomeropherins, and olfactory stimulation with odorants delivered in 300 ms air pulses. It was recorded using standard electroencephalographic (EEG) electrodes placed at positions Cz-A1 and Tz-A1 of the international […] system; the ground electrode was placed on the mastoid process. Electrodermal activity (EDA) was recorded using standard 8 mm silver electrodes in contact with palmar skin of the medial and ring fingers, respeCtively, through a conductive gel interface. Skin temperature (ST) was recorded by a small (1.0 mm) thermistor probe placed in the right ear lobe. Peripheral arterial pulse (PAP) was monitored with a plethysmograph attached to the tip of the index finger. Respiratory frequency (RF) was measured with an adjustable strain gauge placed around the lower thorax. All electrical signals were DC amplified, digitized (MP-100, Biopac Systems) and continuously monitored utilizing a computer.
(§2) Statistical Analysis: EVGs or EOGS, peak-to-peak changes and frequency changes of other parameters were measured and statistically analyzed. The significance of the results was determined by either using paired t-tests or analysis of variance (ANOVA).
Reflex Effects of Vomeropherins: Studies were conducted to determine the central nervous system (CNS) reflex responses to vomeropherin stimulation of the VNO. The sexually dimorphic local responses induced by vomeropherins (FIGS. 6A and B) were mirrored in the autonomic response of male & female subjects. […] In female subjects.

Assay [3] concerns VNO. In words: Cortical activity (EEG) on VNO stimulation with vomeropherins. Conditions: for EEG-alpha activity / EEG-beta activity: additional tests on 13 estranes of Chart 1. The procedure: as §1, §2
[…] […] Synchronization of the EEG was sustained for 1.5 to 2.7 minutes after application of a single pulse of active substance.

Assay [4] deals with VNO. In words: Electro-vomeronasogram (EVG) (Example 57). The settings on record: for EVG response in female subjects: 30 female subjects (ages 20-45), FIG. 6B; for EVG response in the male VNO: male subjects, FIG. 6A and FIG. 7; for EVG response to olfactants delivered to the VNO: male and female subjects, 400 fmoles, FIG. 7B; for organ response (EVG data): additional tests on 13 estranes. The procedure:
The following electrophysiological studies were performed in 60 clinically normal human volunteers of both sexes (30 male and 30 female) whose ages ranged from 20 to 45 years. No anesthetics were used, and female subjects were excluded if pregnant.
(§3) The stimulation and recording system consists of a “multifunctional miniprobe” described elsewhere (Monti-Bloch, L. and Grosser, B. l. (1991) “Effect of putative pheromones on the electrical activity of the human vomeronasal organ and olfactory epithelium,” J. Steroid Biochem. Molec. Biol. 39:573-582.). The recording electrode is a 0.3 mm silver ball attached to a small (0.1 mm) silver wire insulated with Teflon© the surface of the electrode is first treated to produce a silver chloride interface, and is then covered with gelatin It is positioned within a small caliber Teflon© catheter (dia=5 mm) such that the tip of the electrode protrudes approximately 2 mm. The Teflon© catheter is 10 cm in length and constitutes the terminal extension for a multichannel delivery system which delivers a continuous air stream carrying discreet pulses of chemosensory stimuli. The air stream first passes into a small chamber and is bubbled through a solution containing either a vomeropherin or an olfactant in a diluent or the diluent alone. A solenoid is used to rapidly redirect the air stream from the chamber to a route which bypasses the chamber. This creates a discreet pulse of stimulant in the air stream. A second, outer Teflon® tube with a diameter of 2 mm surrounds the catheter-electrode assemblage, and its central end is connected to an aspirator that provides continuous suction of 3 ml/s. This concentric arrangement of the outer suction tube allows the emitted chemosensory stimuli to be localized to an area we call a “minifield” (approx. dia=1 mm), and it avoids diffusion of substances either to the area outside the intended stimulation site or into the respiratory system. The entire stimulating and recording assemblage may be positioned either on the neurosensory epithelium within the VNO, or on the surface of the olfactory or respiratory epithelium.
Electro-vomeronasogram (EVG): Recordings are carried out in a quiet room with the subject supine; the multi-functional miniprobe is initially stabilized within the nasal cavity using a nasal retractor placed in the vestibule. Reference and ground electrodes consist of silver discs (8 mm), both of which are positioned on the glabella.
The entrance to the VNO, or vomeronasal pit, is identified by first dilating the nasal aperture and vestibule. A 6× magnifying binocular loupe with halogen illumination is then used to introduce the tip of the Teflon® catheter and recording electrode assemblage into the VNO opening where it is stabilized at an approximate depth of 1 mm within the vomeronasal passage. Optimal placement of the recording electrode is signaled after testing for an adequate depolarization in response to a test substance.
Electrical signals from the recording electrode are fed to a DC amplifier after which they are digitized, computer monitored, and stored. The peak-to-peak amplitude of the signals is measured, and the area under the depolarization wave is integrated, while continuously monitoring the signal both on the computer screen and on a digital oscilloscope. Artifacts produced by respiratory movements are deleted by training the subjects to practice mouth breathing with velopharyngeal closure.
(§4) Chemosensory Stimulants: Olfactory test substances are cineole, and 1-carvone; vomeropherins are A, B, C, E and F. (Vomeropherins were supplied by Pherin Corporation, Menlo Park, Calif.), Samples of vomeropherins In. concentration of 25-800 fmoles are delivered in the continuous air stream for durations from 300 milliseconds to 1 second. Usually, intervals of 3 to 5 minutes separated each series of short test pulses. […]

In assay [5] the test system is VNO. In words: Skin temperature (ST) on vomeropherin stimulation of the VNO. How it is done: as §1, §2
In female subjects vomeropherins produced changes in EDA and ST with a greater standard deviation than in males.

Assay [6] relates to olfactory epithelium (OE). In words: Electro-olfactgram (EOG) (Example 57). Conditions: 20 subjects (10 males, 10 females); 200 fmoles vomeropherins, 400 fmoles olfactants; one second pulses; FIG. 7A.
Text: as §3, §4, §2
Effects of Vomeropherins on the EOG: The summated receptor potential from the olfactory epithelium (OE) was recorded in 20 subjects: 10 males and 10 females. […]

Setting [7] is: females, single pulse 200 fmoles, FIG. 6F.
The mark [8] stands for this setting: 30 female subjects, p<0.01 compared to A and C, FIG. 6H.

The structures appear in SMILES notation. Entries after “also recorded” stand apart in the source; their conditions may differ.

Turning to `CC(=O)Oc1ccc2c(c1)CC[C@@H]1[C@@H]2CC[C@]2(C)C=CC[C@@H]12` [A, 1,3,5(10),16-Estratetraen-3-yl acetate], in assay [1], the “duration of change in autonomic function” value is on record as “up to 45 seconds” and the “time at which change in autonomic function was first noted” value is at most 2 s. Moreover, the “integrated receptor potential in the VNO” value in assay [1] (compared to propylene glycol control, FIG. 4A) is listed as “significant change”. The galvanic skin response result in assay [1] (compared to propylene glycol control, FIG. 4B) is listed as “significant change”. Besides, the skin temperature entry in assay [1] (compared to propylene glycol control, FIG. 4C) is on record as “significant change”. In addition, the “skin resistance (electrodermal activity, EDA)” value in assay [2] (male subjects, FIG. 6C) is given as “decreased skin resistance”. Besides, the alpha cortical activity entry in assay [3] (males, 200 fmoles, air pulses 300 ms to 1 sec, FIG. 6E) is on record as “significantly increased alpha cortical activity; also recorded: strongest effect”. The “EVG response in female subjects” value in assay [4] (100 fmoles) was “small effect that was significantly different from F”. Moreover, the “EVG average response (mean)” value in assay [4] (male subjects (ages 20 to 38), 100 fmoles, 1 second pulses, FIG. 6A) is 11.4 mV. The “skin temperature (ST)” value in assay [5] (30 male subjects, p<0.01, FIG. 6G) is on record as “significant increase in skin temperature”.
Consider `C[C@@]12C=CC[C@H]1[C@@H]1CCC3=C[C@@H](O)CC[C@]3(C)[C@H]1CC2` [F, Androsta-4,16-dien-3β-ol, reference compound], for which the “electrodermal activity (EDA)” value in assay [2] is “greater decrease in EDA than A or C”. For the same molecule, the alpha cortical activity result in assay [3] (setting [7]) is on record as “increased alpha cortical”. Besides, in assay [4] (100 fmoles), the “EVG response in female subjects” value was “produced the most significant differences within the group” and the “EVG response in the male VNO” value is on record as “significantly reduced responses”. Further, the “skin temperature (ST)” value in assay [5] (setting [8]) is reported as “significant increase in skin temperature”.
On to `C=C(C)C1CC=C(C)C(=O)C1` (centres unmarked) [1-carvone], for which the “EOG local response of the OE” value in assay [6] is “strong response in both men and women; also recorded: significant (p<0.01) local response”. In addition, the “EVG response to olfactants delivered to the VNO” value in assay [4] is “only a minor local response in the VNO; also recorded: do not induce a significant EVG response”.
For the molecule `C[C@@]12C=CC[C@H]1[C@@H]1C[C@@H](O)c3cc(O)ccc3[C@H]1CC2` [E12/N1, ESTRA-1,3,5(10),16-TETRAEN-3,6β-DIOL], the EEG-alpha activity result in assay [3] (men, FIGS. 22-34 A) is “best EEG-alpha activity in men”.
For `C[C@@]12C=CC[C@H]1[C@@H]1CCC3=CC(=O)CC[C@]3(C)[C@H]1CC2` [B, Androsta-4,16-dien-3-one, reference compound], the “electrodermal activity (EDA)” value in assay [2] is given as “greater decrease in EDA than A or C”. The “EOG local response of the OE” value in assay [6] is on record as “only vomeropherin having significant effect in the OE; also recorded: significant (p<0.01) local response”. For the same molecule, in assay [3] (setting [7]), the alpha cortical activity entry is given as “increased alpha cortical”. In addition, the “EVG response in the male VNO” value in assay [4] (100 fmoles) was “significantly reduced responses”. Moreover, the “skin temperature (ST)” value in assay [5] (setting [8]) was “significant increase in skin temperature”.
On to `C[C@@]12C=CC[C@H]1[C@@H]1CCC3=C[C@H](O)CC[C@]3(C)[C@H]1CC2` [E, Androsta-4,16-dien-3α-ol], for which, in assay [6], the “EOG local response of the OE” value is recorded as “stronger olfactory effect than does F; also recorded: significant (p<0.01) local response”. Also, the “EVG response in female subjects” value in assay [4] (100 fmoles) was “does not stimulate the VNO in female subjects”.
As for `C[C@@]12C=CC[C@H]1[C@@H]1CCC3=CC(=O)CC[C@]3(O)[C@H]1CC2` [E7/N1, 10-HYDROXYESTRA-4,16-DIEN-3-ONE], the EEG-beta activity result in assay [3] (men, FIGS. 22-34 A) is on record as “high EEG-betain men”. Besides, the EEG-alpha activity result in assay [3] (women, FIGS. 22-34 B) is “best EEG-alpha activity in women; also recorded: high EEG-alpha in women”. Moreover, the “organ response (EVG data)” value in assay [4] (men, FIG. 21A) is “excellent organ response”; in assay [4] (women, FIG. 20A), “excellent organ response”.
For `COC1=CCC2=C(CC[C@@H]3[C@@H]2CC[C@]2(C)C=CC[C@@H]32)C1` [E8/N1, 3-METHOXYESTRA-2,5(10),16-TRIENE], in assay [3] (men, FIGS. 22-34 A), the EEG-beta activity result is recorded as “best EEG-beta activity in men”.
`CC12CCC(CC1)C(C)(C)O2` [cineole]: in assay [6], the “EOG local response of the OE” value was “strong response in both men and women; also recorded: significant (p<0.01) local response”. The “EVG response to olfactants delivered to the VNO” value in assay [4] is “only a minor local response in the VNO; also recorded: do not induce a significant EVG response”.
